One experiment has as its system C8 cells. Kind of experiment: ACK1 Cell Based Assay (survival under low serum, Cytotox One). Conditions: read-out: ACK1 Cell-based IC50. The method, then: ACK1 Cell Based Assay The ACK1 cell based assay is designed to find inhibitors of ACK1 kinase activity which would be prime candidates for the development of anticancer drugs. […] After 20 to 24 h incubation at 37° C. and 5% CO2, cell viability is determined using the Cytotox One kit (Promega) according to the manufacturer's instructions.

The target in a further experiment is T1, ACK1 (Homo sapiens, UniProt Q07912).
T1 construct: a fusion of an N-terminal (His)6 Tag with amino acids 117 to 489 of ACK1; (His)6 (N); made in house; host or cells: baculovirus infected Hi-5 insect cells
T1 sequence (Q07912 117-489): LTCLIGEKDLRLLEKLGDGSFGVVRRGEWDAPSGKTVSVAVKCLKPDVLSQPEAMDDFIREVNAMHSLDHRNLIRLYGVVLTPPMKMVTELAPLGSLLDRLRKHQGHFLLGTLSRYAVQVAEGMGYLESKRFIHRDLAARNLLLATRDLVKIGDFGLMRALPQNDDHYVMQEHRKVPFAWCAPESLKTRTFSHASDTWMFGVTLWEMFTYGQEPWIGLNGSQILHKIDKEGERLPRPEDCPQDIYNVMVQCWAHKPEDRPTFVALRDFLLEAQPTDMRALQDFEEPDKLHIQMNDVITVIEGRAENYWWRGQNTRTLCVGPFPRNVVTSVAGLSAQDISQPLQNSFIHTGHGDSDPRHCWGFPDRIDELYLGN
Put plainly: ACK1 Enzymatic Assay (PGT/autophosphorylation ELISA). It counts as biochemical. The method, then: IC50 values of compounds of the invention may be assessed as follows. The ACK1 kinase assay utilizes a protein expressed in baculovirus infected Hi-5 cells (a fusion of an N-terminal (His)6 Tag with amino acids 117 to 489 of ACK1) purified by affinity chromatography on a Ni-NTA column. The substrate for the reaction is ACK1 itself (autophosphorylation) and poly-Glutamic acid-Tyrosine (PGT (4:1), Sigma catalog #PO275). The PGT is coated to Nunc 96 well plates at 80 μg/mL overnight at 4° C. The morning after coating, the plates are washed twice, and […] reaction buffer (10 mM Hepes, pH 7.6; 20 mM MgCl2; 75 mM NaCl, 0.125% TWEEN20 (polyoxyethylene sorbitan monolaurate); 1 mM DTT) with 5 μM ATP are added to each well. Test compounds are added in […] DMSO, and the reaction is started by addition of […] kinase in assay buffer. The reaction proceeds for 2 h at room temperature. Next, the plates are washed four times, and the level of tyrosine phosphorylation in a given well is quantified by standard ELISA assay utilizing a phosphotyrosine antibody (PY20, Pierce).
On the technique in general: ELISA stands for enzyme-linked immunosorbent assay.

In a further experiment the target is T2, LCK (Homo sapiens, UniProt P06239).
T2 construct: 15 μL of LCK KD GST (225-509) for a final volume of 40 μL; GST
T2 sequence (P06239 225-509): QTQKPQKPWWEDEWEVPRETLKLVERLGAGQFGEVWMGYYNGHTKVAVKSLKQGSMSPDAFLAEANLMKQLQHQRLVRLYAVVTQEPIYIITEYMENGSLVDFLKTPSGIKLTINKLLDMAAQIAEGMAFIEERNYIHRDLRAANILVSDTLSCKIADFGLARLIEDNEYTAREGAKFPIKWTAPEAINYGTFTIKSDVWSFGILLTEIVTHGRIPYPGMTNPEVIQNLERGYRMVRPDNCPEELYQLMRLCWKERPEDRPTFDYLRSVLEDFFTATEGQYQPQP
Put plainly: LCK-Homogeneous Time Resolved Fluorescent (HTRF) Kinase Assay. The format is biochemical. Here is the method: LCK-Homogeneous Time Resolved Fluorescent (HTRF) Kinase Assay
The LCK HTRF assay begins with LCK in the presence of ATP phosphorylating the biotinylated peptide Gastrin. The reaction incubates for 90 min. To quench the assay detection reagents are added which both stop the reaction by diluting out the enzyme and chelating the metals due to the presence of EDTA. Once the detection reagents are added the assay incubates for 30 min to allow for equilibration of the detection reagents.
Buffer conditions are as follows: 50 mM HEPES pH 7.5, 50 mM NaCl, 20 mM MgCl2, 5 mM MnCl2, 2 mM DTT, 0.05% BSA.
The assay is quenched and stopped with 160 μL of a detection reagent. Detection reagents are as follows: Buffer made of 50 mM Tris, pH 7.5, 100 mM NaCl, 3 mM EDTA, 0.05% BSA, 0.1% Tween20.
The assay plate is read in either a Discovery or a RubyStar.

The mark [1] stands for this setting: ACK1-dependent C8 cells, 0.125% FCS, 20 to 24 h.

Like-named read-outs stand apart in the source and are kept apart here.

The IC50 is the point on the concentration scale where inhibition reaches its midpoint. One may read the Ki as the equilibrium dissociation constant of an inhibitor or competing ligand from its target. A high value points to a looser hold on the target. For `Cc1cccc(C)c1Nc1nn(CCCN2CCCCC2)c2nc(Nc3ccc(N4CCN(C)CC4)cc3)ncc12` [Compound 50, N^3-(2,6-Dimethyl-phenyl)-N^6-[4-(4-methyl-piperazin-1-yl)-phenyl]-1-(3-piperidin-1-yl-propyl)-1H-pyrazolo[3,4-d]pyrimidine-3,6-diamine], the IC50 in the experiment on C8 cells (setting [1]) was 10 to 100 nM. For the same compound, the inhibitory constant (Ki) on ACK1 was 10 to 100 nM; at LCK, less than 10 nM.
Turning to `CCN(CC)CC(O)CCn1nc(Nc2c(C)cccc2C)c2cnc(Nc3ccccc3)nc21` (stereo not drawn) [Compound 44, 1-(diethylamino)-4-(3-(2,6-dimethylphenylamino)-6-(phenylamino)-1H-pyrazolo[3,4-d]pyrimidin-1-yl)butan-2-ol], the IC50 in the experiment with C8 cells (setting [1]) was greater than 100 nM. In addition, the Ki at ACK1 was greater than 100 nM; on LCK, less than 10 nM.
In the case of `Cc1cccc(C)c1Nc1nn(CCC(O)CN(C)C)c2nc(Nc3ccccc3)ncc12` (stereo not drawn) [Compound 43, 1-(dimethylamino)-4-(3-(2,6-dimethylphenylamino)-6-(phenylamino)-1H-pyrazolo[3,4-d]pyrimidin-1-yl)butan-2-ol], the IC50 with C8 cells (setting [1]) was greater than 100 nM. Also, the Ki is 10 to 100 nM at ACK1 and less than 10 nM on LCK.
On the same counts, the results for `Cc1cccc(C)c1Nc1nn(CCC2COCO2)c2nc(Nc3ccccc3)ncc12` (stereo not drawn) [Compound 35, 1-(2-(1,3-dioxolan-4-yl)ethyl)-N^3-(2,6-dimethylphenyl)-N^6-phenyl-1H-pyrazolo[3,4-d]pyrimidine-3,6-diamine] are greater than 100 nM, 10 to 100 nM and less than 10 nM.
Consider `Cc1cccc(C)c1Nc1nn(CCCO)c2nc(Nc3ccccc3)ncc12` [Compound 37, 3-(3-(2,6-dimethylphenylamino)-6-(phenylamino)-1H-pyrazolo[3,4-d]pyrimidin-1-yl)propan-1-ol], for which, in the experiment on C8 cells (setting [1]), the IC50 was greater than 100 nM. For the same compound, the figures for the Ki at ACK1 and at LCK were 10 to 100 nM and less than 10 nM, respectively.
With `COC(C)(C)CCn1nc(Nc2ccccc2)c2cnc(Nc3ccccc3)nc21` [Compound 74, 1-(3-Methoxy-3-methyl-butyl)-N^3, N^6-diphenyl-1H-pyrazolo[3,4-d]pyrimidine-3,6-diamine], the 50% inhibitory concentration (IC50) with C8 cells is greater than 100 nM. The inhibition constant Ki on ACK1 and at LCK was greater than 100 nM each time.
As for `OCC(O)CCn1nc(Nc2c(Cl)cccc2Cl)c2cnc(Nc3ccccc3)nc21` (stereo not drawn) [Compound 88, 4-(3-(2,6-dichlorophenylamino)-6-(phenylamino)-1H-pyrazolo[3,4-d]pyrimidin-1-yl)butane-1,2-diol], the concentration for half-maximal inhibition (IC50) with C8 cells (setting [1]) is 10 to 100 nM. The results for the Ki on ACK1 and at LCK were 10 to 100 nM and less than 10 nM, respectively.
For the compound `COC(C)(C)CCn1nc(Nc2c(C)cc(F)cc2C)c2cnc(Nc3ccccc3)nc21` [Compound 78, N^3-(4-Fluoro-2,6-dimethyl-phenyl)-1-(3-methoxy-3-methyl-butyl)-N^6-phenyl-1H-pyrazolo[3,4-d]pyrimidine-3,6-diamine], in the experiment on C8 cells, the IC50 is greater than 100 nM. Further, the Ki on ACK1 is 10 to 100 nM; at LCK it was less than 10 nM.
Turning to `COCCOc1ccc(Nc2ncc3c(Nc4c(C)cccc4C)nn(CCC(C)(C)OC)c3n2)cc1` [Compound 54, N^3-(2,6-Dimethyl-phenyl)-N-6-[4-(2-methoxy-ethoxy)-phenyl]-1-(3-methoxy-3-methyl-butyl)-1H-pyrazolo[3,4-d]pyrimidine-3,6-diamine], in the experiment with C8 cells (setting [1]), the half-maximal inhibitory concentration (IC50) was greater than 100 nM. The inhibitory constant (Ki) on ACK1 is 10 to 100 nM; on LCK it was less than 10 nM.
Regarding `Cc1cccc(C)c1Nc1nn(CCCN2CCCCC2)c2nc(Nc3ccc(N4CCNCC4)cc3)ncc12` [Compound 49, N^3-(2,6-Dimethyl-phenyl)-N^6-(4-piperazin-1-yl-phenyl)-1-(3-piperidin-1-yl-propyl)-1H-pyrazolo[3,4-d]pyrimidine-3,6-diamine], in the experiment on C8 cells (setting [1]), the IC50 is greater than 100 nM. Further, the inhibition constant (Ki) at ACK1 is 10 to 100 nM; on LCK, less than 10 nM.
As to `Clc1cccc(Cl)c1Nc1nn(CCC2CCNCC2)c2nc(Nc3ccccc3)ncc12` [Compound 94, N^3-(2,6-dichlorophenyl)-N^6-phenyl-1-(2-(piperidin-4-yl)ethyl)-1H-pyrazolo[3,4-d]pyrimidine-3,6-diamine], the half-maximal inhibitory concentration (IC50) in the experiment with C8 cells (setting [1]) was greater than 100 nM. The inhibitory constant (Ki) at ACK1 is 10 to 100 nM; on LCK it was less than 10 nM.
With `Cc1cccc(C)c1Nc1nn(CCCN2CCCCC2)c2nc(Nc3ccccc3)ncc12` [Compound 48, N^3-(2,6-Dimethyl-phenyl)-N^6-phenyl-1-(3-piperidin-1-yl-propyl)-1H-pyrazolo[3,4-d]pyrimidine-3,6-diamine], the IC50 in the experiment on C8 cells (setting [1]) is greater than 100 nM. Further, the Ki on ACK1 is greater than 100 nM; on LCK, less than 10 nM.
With “Ethyl-2-(3-(2,6-dimethylphenylamino)-6-(phenylamino)-1H-indazole-1-yl)acetate [Compound 64]”, the half-inhibitory concentration (IC50) in the experiment on C8 cells (setting [1]) is greater than 100 nM. Moreover, the inhibition constant Ki at ACK1 was 10 to 100 nM; at LCK, less than 10 nM.
In the same order, the values of `COC(C)(C)CCn1nc(Nc2c(C)cccc2C)c2ccc(Nc3ccc(N4CC(C)NC(C)C4)cc3)cc21` (stereo not drawn) [Compound 60, N^3-(2,6-Dimethylphenyl)-1-N^6-(4-(3,5-dimethylpiperazin-1-yl)phenyl)-1-(3-methoxy-3-methylbutyl)-1H-indazole-3,6-diamine] are 10 to 100 nM, less than 10 nM and less than 10 nM.
Take `Cc1cccc(C)c1Nc1nn(CC2CCOCC2)c2nc(Nc3ccc(OCCCN4CCCCC4)c(F)c3)ncc12` [Compound 62]: in the experiment on C8 cells (setting [1]), the half-maximal inhibitory concentration (IC50) is 10 to 100 nM. In addition, the Ki at ACK1 and on LCK was less than 10 nM each time.
Regarding “N^3-(2,6-Dimethylphenyl)-N^6-phenyl-1-((tetrahydro-2H-pyran-4-yl)methyl)-1H-indazole-3,6-diamine [Compound 63]”, in the experiment on C8 cells (setting [1]), the IC50 was greater than 100 nM. Besides, the Ki on ACK1 is 10 to 100 nM; on LCK, less than 10 nM.
On to `Cc1cccc(C)c1Nc1nn(CCC(C)O)c2nc(Nc3ccccc3)ncc12` (stereo not drawn) [Compound 46, 4-(3-(2,6-dimethylphenylamino)-6-(phenylamino)-1H-pyrazolo[3,4-d]pyrimidin-1-yl)butan-2-ol], for which the IC50 in the experiment on C8 cells (setting [1]) is greater than 100 nM. Also, the results for the Ki on ACK1 and at LCK were 10 to 100 nM and less than 10 nM, respectively.
Regarding `COC[C@H]1CCCN1CCCn1nc(Nc2c(C)cccc2C)c2ccc(Nc3ccc(N4CCNCC4)cc3)cc21` [Compound 67, (R)—N^3-(2,6-Dimethylphenyl)-1-(3-(2-(methoxymethyl)pyrrolidin-1-yl)propyl)-N^6-(4-piperazin-1-yl)phenyl-1H-indazole-3,6-diamine], the IC50 in the experiment with C8 cells (setting [1]) was 10 to 100 nM. Further, the Ki on ACK1 and at LCK was less than 10 nM throughout.
Take “2-(3-(2,6-dimethylphenylamino)-6-(phenylamino)-1H-indazol-1-yl)-1-(4-methylpiperazin-1-yl)ethanone [Compound 70]”: the IC50 in the experiment on C8 cells (setting [1]) is greater than 100 nM. Also, the Ki at ACK1 is greater than 100 nM; on LCK, less than 10 nM.
Turning to `COC(C)(C)CCn1nc(Nc2c(C)cccc2C)c2cnc(Nc3ccc(OCCCN4CCCCC4)c(F)c3)nc21` [Compound 57], the IC50 in the experiment with C8 cells (setting [1]) is 10 to 100 nM. For the same compound, the Ki at ACK1 and at LCK was 10 to 100 nM each time.
Consider `COC(C)(C)CCn1nc(Nc2c(C)cccc2C)c2cnc(Nc3ccc(N4CCN(C)CC4)cc3)nc21` [Compound 55, N^3-(2,6-Dimethyl-phenyl)-1-(3-methoxy-3-methyl-butyl)-N-6-[4-(methylpiperazin-1-yl)phenyl]-1H-pyrazolo[3,4-d]pyrimidine-3,6-diamine], for which the IC50 in the experiment on C8 cells (setting [1]) was 10 to 100 nM. For the same compound, the Ki at ACK1 and on LCK was less than 10 nM throughout.
With `CN(C)CCCn1nc(Nc2c(Cl)cccc2Cl)c2cnc(Nc3ccccc3)nc21` [Compound 89, N^3-(2,6-Dichlorophenyl)-1-(3-(dimethylamino)propyl)-N^6-phenyl-1H-pyrazolo[3,4-d]pyrimidine-3,6-diamine], the IC50 in the experiment on C8 cells (setting [1]) lay in the range of 10 to 100 nM. Besides, the inhibition constant Ki at ACK1 and on LCK was less than 10 nM each time.
Turning to `C=CCCn1nc(Nc2c(C)cccc2C)c2cnc(Nc3ccccc3)nc21` [Compound 33, 1-(but-3-enyl)-N^3-(2,6-dimethylphenyl)-N^6-phenyl-1H-pyrazolo[3,4-d]pyrimidine-3,6-diamine], the IC50 with C8 cells (setting [1]) was greater than 100 nM. Moreover, the inhibition constant (Ki) at ACK1 is 10 to 100 nM; on LCK, less than 10 nM.
